Tests used:
[1] = target: T1, recombinant UMPS (Homo sapiens, UniProt P11172); assay: in vitro UMPS activity assay (LC/MS detection of OMP and UMP); format: biochemical; details: for UMP production by UMPS / abundance of OMP: increasing concentrations of inhibitor
T1 construct: The UMPS gene was amplified from the pDONR223-UMPS template using the primers JC624/JC625; made in house; host or cells: HEK-293T cells, transient transfection, anti-FLAG immunopurification
T1 sequence (P11172 2-480 limits assumed): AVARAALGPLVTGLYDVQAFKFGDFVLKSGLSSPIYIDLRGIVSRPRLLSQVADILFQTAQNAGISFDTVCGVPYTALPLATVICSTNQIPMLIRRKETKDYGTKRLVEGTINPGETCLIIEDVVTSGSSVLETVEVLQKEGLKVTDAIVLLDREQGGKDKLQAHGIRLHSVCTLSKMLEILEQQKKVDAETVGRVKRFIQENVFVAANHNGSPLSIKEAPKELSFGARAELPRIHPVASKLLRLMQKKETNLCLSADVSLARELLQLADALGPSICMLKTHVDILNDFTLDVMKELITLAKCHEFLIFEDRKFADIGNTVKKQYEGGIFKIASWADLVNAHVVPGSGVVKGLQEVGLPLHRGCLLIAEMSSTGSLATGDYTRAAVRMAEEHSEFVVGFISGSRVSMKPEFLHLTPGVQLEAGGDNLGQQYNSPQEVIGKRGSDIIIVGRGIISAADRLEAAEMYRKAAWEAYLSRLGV
Method: An UMPS mutant (Y37A, R155A), which was designed based on a recently deposited structure of the OPRT domain of human UMPS (Protein Data Bank entry 2WNS, chains A and B) (FIG. 12), had no activity and served as a negative control in the assay.
For metabolite profiling of LIMPS activity assay samples, reaction mixtures were extracted as described (see LIMPS activity assay) and 5 μL of each sample was injected for LC/MS analysis as described for profiling media samples, except that the mass spectrometer was operated in full scan, negative ionization mode only.
For orotate, PRPP, OMP, and UMP in UMPS assay samples, all settings as described for the tSIM scan used for FdUMP and FUMP were identical except that the maximum integration time was 200 msec, and the target masses were 155.0088 (corresponding to orotate), 323.0286 (corresponding to UMP), 367.0184 (corresponding to OMP), and 388.9445 (corresponding to PRPP).
For transfection of HEK-293 T cells, 4 million cells were plated in 15 cm culture dishes. After 24 hr, cells were transfected with 15 μg of pLJC2-UMPS-3×FLAG or pLJC2-UMPS (Y37A, R155A)-3×FLAG using the polyethylenimine method (Boussif et al., 1995). After 48 hr, cells were rinsed one time with ice-cold PBS and then immediately lysed with lysis buffer (1% Triton X-100, 40 mM Tris-HCl pH 7.5, 100 mM NaCl, 5 mM MgCl2, 1 tablet of EDTA-free protease inhibitor (Roche 11580800; per 25 mL buffer), 1 tablet of PhosStop phosphatase inhibitor (Roche 04906845001; per 10 mL buffer)). The cell lysates were cleared by centrifugation at 21130 g for 10 min at 4° C. For anti-FLAG immunoprecipitation, the FLAG-M2 affinity gel (Sigma A2220) was washed 3 times in lysis buffer. For each experiment, 500 μL of a 50/50 slurry of the affinity gel was then added to a pool of clarified lysates collected from 5 individual 15 cm culture dishes, and incubated with rotation for 3 hr at 4° C. Following immunoprecipitation, the beads were washed 2 times in lysis buffer and 3 times with lysis buffer containing 500 mM NaCl. Recombinant protein was then eluted in lysis buffer containing 1 mg/mL FLAG peptide for 1 hr at 4° C. The eluent was isolated by centrifugation at 100 g for 4 min at 4° C. (BioRad micro bio-spin column 732-6204), buffer exchanged (Amicon Ultra 30K NMWL) against 20 volumes of storage buffer (40 mM Tris-HCl pH 7.5, 100 mM NaCl, 1.5 mM dTT), mixed with glycerol (final concentration 15% v/v), and finally snap-frozen with liquid nitrogen and stored at −80° C. Protein samples were quantified using Bradford reagent and a BSA standard, and verified by 12% SDS-PAGE.
Reactions of each purified LIMPS variant (20-40 nM enzyme) with orotate (100 μM) and PRPP (300 μM) were carried out at 37° C. in 20 mM Tris-HCl pH 7.5, 5 mM Na2HPO4, […], 2 mM 2 mM dTT, 100 μM EDTA (adapted from (Han et al., 1995)), and various concentrations of putative inhibitors in a total volume of 100 μL. Following 20 min incubation, a 15 μL aliquot of the reaction mixture was removed and immediately added to 85 μL ice-cold 80% methanol for metabolite extraction, vortexed for 5 min, and centrifuged at 21130 g for 1 min at 4° C.
Stock solutions of 6-azauridine, 6-aza-UMP, 9-methyluric acid, allantoin, allopurinol, and uric acid were made up fresh at 200 mM in 1 M NaOH, and upon appropriate dilutions, had little effect on reaction pH.
An OMP chemical standard was not available.

[2] = test system: K562 cells; assay: metabolite profiling of K562 cells (intracellular pyrimidine pathway metabolites); format: cell-based, human
Method: To determine which component(s) of HPLM^+dIFS affects the de novo pyrimidine synthesis pathway, K562 cells were cultured in HPLM^+dIFS derivatives lacking: (1) acetone, creatine, creatinine, formate, fructose, galactose, glutathione, glycerol, and hypoxanthine; (2) non-proteinogenic amino acids (8 metabolites); (3) water-soluble acids (8 metabolites); (4) urea; or (5) uric acid (FIG. 5A). […] HPLM^+dIFS contains uric acid at […], a concentration that is 40- and at least 500-fold greater than that of RPMI^+IFS and RPMI^+dIFS, respectively (FIG. 5C), and, importantly, its intracellular concentration reflects that of the corresponding culture medium (FIG. 5D).
To determine whether uric acid might cause inhibition of UMPS, an established UMPS inhibitor was studied to see if it had similar effects on the de novo pyrimidine biosynthesis pathway as uric acid in disclosed cells. […] Using LC/MS-based metabolite profiling, a species whose mass-to-charge ratio (m/z) matched the predicted m/z of allopurinol ribonucleotide was detected, and the magnitude correlated with the concentration of allopurinol in the media (FIG. 11D). Importantly, this species could be distinguished from its isomer, IMP, by their differing chromatographic retention times. […] However, a metabolite peak consistent with a putative uric acid ribonucleotide was not detected.
(§1) After 24 hr incubation, cells were centrifuged at 250 g for 5 min, resuspended in 1 mL ice-cold 0.9% sterile NaCl, and again centrifuged at 250 g for 5 min at 4° C. Metabolites were extracted in a 1 mL solution of 80% methanol containing 10 ng/mL phenylalanine-d8 as an internal standard. Following a 10 min vortex and centrifugation for […] 10 min at 4° C., samples were dried under nitrogen gas. Dried samples were stored at −80° C. and then resuspended in 100 μL water; 4 μL of each cell sample was injected for LC/MS analysis as described for profiling media samples. For all experiments, an additional culture replicate was set up identically and used for measuring cell number and volume, which were each measured using a Beckman Z2 Coulter Counter with a diameter setting of 8-30 μm.

[3] = target: T2, ODC domain of UMPS (Homo sapiens, UniProt P11172); details: literature; cited from earlier work
T2 sequence (P11172 1-480): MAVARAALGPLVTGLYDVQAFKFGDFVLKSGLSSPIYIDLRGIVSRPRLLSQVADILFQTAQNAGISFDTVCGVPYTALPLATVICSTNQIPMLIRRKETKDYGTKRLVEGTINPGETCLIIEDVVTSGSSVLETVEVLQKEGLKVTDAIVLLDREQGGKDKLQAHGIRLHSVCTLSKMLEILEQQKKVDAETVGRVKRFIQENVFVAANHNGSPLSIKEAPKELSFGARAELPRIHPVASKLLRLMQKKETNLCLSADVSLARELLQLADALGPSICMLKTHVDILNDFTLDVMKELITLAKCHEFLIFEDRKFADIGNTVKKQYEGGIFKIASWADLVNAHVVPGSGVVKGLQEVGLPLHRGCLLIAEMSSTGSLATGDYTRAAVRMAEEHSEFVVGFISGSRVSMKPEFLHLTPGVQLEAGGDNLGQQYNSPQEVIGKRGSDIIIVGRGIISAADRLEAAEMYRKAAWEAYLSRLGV

[4] = test system: six hematological cancer cell lines; assay: metabolite profiling of six hematological cancer cell lines; format: cell-based, human; details: 350 μM uric acid added to RPMI+IFS, compared to RPMI+IFS
Method: To test the hypothesis that culturing cells in a medium that better mimics the metabolic composition of human plasma alters cellular metabolism compared to that in established media, the metabolite profiles of cells cultured in HPLM^+dIFS were compared to those in RPMI^+IFS or RPMI^+dIFS.
as §1

[5] = test system: certain cancer cell lines; details: Schwartz and Handschumacher, 1979; cited from earlier work
[6] = test system: NOMO1 cells; assay: 5-FU treatment for LC/MS (intracellular 5-FU, FdUMP, FUMP); details: 20 μM 5-FU, 24 hr
[7] = test system: NOMO1 cells; assay: drug treatment assay, cell viability by Cell Titer-Glo; format: cell-based, human
Method: After 24 hr incubation, cells were treated with 5-FU (100 nM, 1 μM, 10 μM, 100 μM, or 1 mM) or doxorubicin (1.95 nM, 7.81 nM, 31.25 nM, 125 nM, or 500 nM). All wells, including untreated controls, contained 0.5% DMSO. Following addition of drugs, plates were gently shaken for 2 min. After 4 days of treatment, 200 μL from each well was transferred to a white 96-well plate (Greiner) and cell viability was assessed with Cell Titer-Glo (Promega). Luminescence was measured with a SpectraMax M5 Plate Reader (Molecular Devices) and normalized to an untreated control.
(§2) Dose-response values were plotted in GraphPad Prism and fit using a One Site-Fit log IC50 equation.

[8] = test system: SW620 cells; assay: drug treatment assay, cell viability by Cell-Titer Glo; format: cell-based, human; details: removal of uric acid from HPLM+dIFS
Method: SW620 cells were seeded at a density of 2000 cells/well and allowed to attach for 24 hr. 5-FU and doxorubicin were prepared in DMSO and dispensed using an HP D300 compound dispenser. Cell viability was assessed with Cell-Titer Glo at 4 days following treatment and luminescence was measured as described above.
as §2

Cn1c(=O)[nH]c2c(=O)[nH]c(=O)[nH]c21 [9-methyluric acid]
direct inhibition of UMPS [1]: did not directly inhibit UMPS | levels of orotate, orotidine, or the other intermediates in the de novo pyrimidine biosynthesis pathway ([2]; 350 μM in HPLM+dIFS, compared to HPLM+dIFS lacking uric acid): did not alter the levels

O=c1[nH]cnc2c1cnn2C1O[C@H](COP(=O)(O)O)[C@@H](O)[C@H]1O (stereo partly drawn) [allopurinol ribonucleotide]
inhibition of the ODC domain of UMPS [3]: competitively inhibit the ODC domain of UMPS

O=c1cnn([C@@H]2O[C@H](CO)[C@@H](O)[C@H]2O)c(=O)[nH]1 [6-azauridine]
direct inhibition of UMPS [1]: did not directly inhibit UMPS

O=c1cnn([C@@H]2O[C@H](COP(=O)(O)O)[C@@H](O)[C@H]2O)c(=O)[nH]1 [6-aza-UMP]
UMP levels relative to reactions containing vehicle ([1]; 6-aza-UMP at 50 μM): ~3% | UMP production by UMPS [1]: dose-dependently decreased UMP production by UMPS | abundance of OMP [1]: dramatically increased the abundance of OMP | inhibition of the ODC domain of UMPS [3]: competitively inhibit the ODC domain of UMPS

NC(=O)NC1NC(=O)NC1=O (stereo not drawn) [allantoin]
direct inhibition of UMPS [1]: did not directly inhibit UMPS

O=c1[nH]c(=O)c2[nH]c(=O)[nH]c2[nH]1 [uric acid]
direct inhibition of UMPS [1]: direct inhibitor of the ODC domain of UMPS | UMP production by UMPS [1]: dose-dependently inhibited UMP production by UMPS | abundance of OMP [1]: increased OMP | UMP levels relative to reactions containing vehicle ([1]; uric acid at 1 mM): ~30% | orotate and orotidine abundances ([2]; HPLM+dIFS containing increasing concentrations of uric acid): dose-dependently increased orotate and orotidine abundances | orotate and orotidine levels on removal of the component from HPLM+dIFS ([2]; dropout formulations of HPLM+dIFS): reduced orotate and orotidine levels to those of cells cultured in RPMI | accumulation of OMP ([2]; highest tested concentration (700 μM)): led to a detectable accumulation of OMP | UTP abundance [4]: cell line-dependent effects on UTP abundance | orotate and orotidine levels [4]: greatly boosted orotate and orotidine levels

Oc1ncnc2[nH]ncc12 [allopurinol]
direct inhibition of UMPS [1]: did not directly inhibit UMPS | levels of carbamoylaspartate, dihydroorotate, orotate, orotidine, and OMP ([2]; HPLM+dIFS lacking uric acid, increasing concentrations of allopurinol): dose-dependently increased the levels | decrease in abundance of UTP ([2]; highest tested concentration of allopurinol): ~30% | sensitivity of cancer cell lines to 5-FU [5]: reduces the sensitivity of certain cancer cell lines to 5-FU

O=c1[nH]cc(F)c(=O)[nH]1 [5-FU, 5-Fluorouracil]
FUMP levels ([6]; uric acid-containing HPLM+dIFS): below the limit of detection | intracellular abundances of FdUMP and 5-FU ([6]; uric acid-containing HPLM+dIFS vs lacking uric acid): little effect

COc1cccc2c1C(=O)c1c(O)c3c(c(O)c1C2=O)C[C@@](O)(C(=O)CO)C[C@@H]3O[C@H]1C[C@H](N)[C@H](O)[C@H](C)O1 [doxorubicin]
potency of doxorubicin ([7]; culture in HPLM+dIFS compared to RPMI+IFS and RPMI+dIFS): without affecting the potency of doxorubicin | doxorubicin sensitivity ([7]; removal of uric acid from HPLM+dIFS): without affecting doxorubicin sensitivity | doxorubicin sensitivity [8]: did not influence doxorubicin sensitivity
